According to PMC5218480 (PLoS ONE, 2017):

Test system: MV-4-11 cells
Test: Gene expression microarray analysis (Affymetrix PrimeView) and GSEA
Type: cell-based, human
Design: RFU PODN (11730768_x_at) / Fold change /veh PODN (11730768_x_at) / RFU LINC00158 (11744669_a_at) / Fold change /veh LINC00158 (11744669_a_at) / RFU DUSP10 (11751237_a_at) / Fold change /veh DUSP10 (11751237_a_at) / RFU ID3 (11757404_x_at) / Fold change /veh ID3 (11757404_x_at) / RFU PLEKHG5 (11737974_s_at) / Fold change /veh PLEKHG5 (11737974_s_at) / RFU LRRC4B (11730491_at) / Fold change /veh LRRC4B (11730491_at) / RFU GIMAP4 (11747438_a_at) / Fold change /veh GIMAP4 (11747438_a_at) / RFU KRT8 (11758183_x_at) / Fold change /veh KRT8 (11758183_x_at) / RFU CNN1 (11734310_a_at) / Fold change /veh CNN1 (11734310_a_at) / RFU VPS37D (11726825_at) / Fold change /veh VPS37D (11726825_at) / RFU C10orf10 (11716522_x_at) / Fold change /veh C10orf10 (11716522_x_at) / RFU KIR2DL2 /// KIR2DL4 /// KIR2DL5A /// KIR2DL5B /// KIR2DS1 /// KIR2DS2 /// KIR2DS3 /// KIR2DS4 /// KIR3DL3 /// KIR3DL3 /// KIR3DS1 (11738374_at) / Fold change /veh KIR2DL2 /// KIR2DL4 /// KIR2DL5A /// KIR2DL5B /// KIR2DS1 /// KIR2DS2 /// KIR2DS3 /// KIR2DS4 /// KIR3DL3 /// KIR3DL3 /// KIR3DS1 (11738374_at) / RFU C1QL1 (11718748_at) / Fold change /veh C1QL1 (11718748_at) / RFU TMPRSS4 (11747572_a_at) / Fold change /veh TMPRSS4 (11747572_a_at) / RFU HAMP (11756126_x_at) / Fold change /veh HAMP (11756126_x_at) / RFU RNFT2 (11725882_a_at) / Fold change /veh RNFT2 (11725882_a_at) / RFU NR4A2 (11747474_a_at) / Fold change /veh NR4A2 (11747474_a_at) / RFU ABCC12 (11746883_a_at) / Fold change /veh ABCC12 (11746883_a_at) / RFU TMEM136 (11760407_x_at) / Fold change /veh TMEM136 (11760407_x_at) / RFU CLDN22 /// WWC2 (11732394_at) / Fold change /veh CLDN22 /// WWC2 (11732394_at) / RFU HLA-DPB1 (11760878_x_at) / Fold change /veh HLA-DPB1 (11760878_x_at) / RFU SPINT1 (11716480_a_at) / Fold change /veh SPINT1 (11716480_a_at) / RFU GAP43 (11754022_s_at) / Fold change /veh GAP43 (11754022_s_at) / RFU A4GNT (11735810_at) / Fold change /veh A4GNT (11735810_at) / RFU PRB3 (11715151_x_at) / Fold change /veh PRB3 (11715151_x_at) / RFU TUBB4B (11761932_at) / Fold change /veh TUBB4B (11761932_at) / RFU CAPN14 (11732068_a_at) / Fold change /veh CAPN14 (11732068_a_at) / RFU TMCC2 (11721928_a_at) / Fold change /veh TMCC2 (11721928_a_at) / RFU IRGQ (11745062_a_at) / Fold change /veh IRGQ (11745062_a_at) / RFU FAM174B (11720279_a_at) / Fold change /veh FAM174B (11720279_a_at) / RFU TMPRSS4 (11748680_a_at) / Fold change /veh TMPRSS4 (11748680_a_at) / RFU FAM212B (11763350_a_at) / Fold change /veh FAM212B (11763350_a_at) / RFU PLEKHG5 (11743358_a_at) / Fold change /veh PLEKHG5 (11743358_a_at) / RFU ZSCAN30 (11745921_a_at) / Fold change /veh ZSCAN30 (11745921_a_at) / RFU CMKLR1 (11741424_a_at) / Fold change /veh CMKLR1 (11741424_a_at) / RFU LOC101060620 /// MAPK8IP1 (11723275_at) / Fold change /veh LOC101060620 /// MAPK8IP1 (11723275_at) / RFU SPTSSB (11747773_x_at) / Fold change /veh SPTSSB (11747773_x_at) / RFU PRSS12 (11739890_at) / Fold change /veh PRSS12 (11739890_at) / RFU BIN1 (11741810_x_at) / Fold change /veh BIN1 (11741810_x_at) / RFU WNT11 (11732464_a_at) / Fold change /veh WNT11 (11732464_a_at) / RFU C10orf10 (11716521_a_at) / Fold change /veh C10orf10 (11716521_a_at) / RFU C5orf56 (11738089_at) / Fold change /veh C5orf56 (11738089_at) / RFU CYB561 (11721691_x_at) / Fold change /veh CYB561 (11721691_x_at) / RFU ANKRD19P (11752326_a_at) / Fold change /veh ANKRD19P (11752326_a_at) / RFU OR2T12 /// OR2T33 /// OR2T8 (11738714_s_at) / Fold change /veh OR2T12 /// OR2T33 /// OR2T8 (11738714_s_at) / RFU VCAN (11748164_a_at) / Fold change /veh VCAN (11748164_a_at) / RFU JSRP1 (11732532_at) / Fold change /veh JSRP1 (11732532_at) / RFU KRTAP10-11 (11738290_x_at) / Fold change /veh KRTAP10-11 (11738290_x_at) / RFU MYO3A (11730013_a_at) / Fold change /veh MYO3A (11730013_a_at) / RFU EBF3 (11725865_a_at) / Fold change /veh EBF3 (11725865_a_at) / RFU CAMK2N1 (11719241_x_at) / Fold change /veh CAMK2N1 (11719241_x_at) / RFU C5orf56 (11738088_a_at) / Fold change /veh C5orf56 (11738088_a_at) / RFU OLFML3 (11715873_a_at) / Fold change /veh OLFML3 (11715873_a_at) / RFU LOC100653217 /// NTM (11731650_a_at) / Fold change /veh LOC100653217 /// NTM (11731650_a_at) / RFU MAPK11 (11762145_a_at) / Fold change /veh MAPK11 (11762145_a_at) / RFU FIZ1 (11724087_x_at) / Fold change /veh FIZ1 (11724087_x_at) / RFU OASL (11726364_x_at) / Fold change /veh OASL (11726364_x_at) / RFU SOX15 (11748057_x_at) / Fold change /veh SOX15 (11748057_x_at) / RFU CD79A (11719716_a_at) / Fold change /veh CD79A (11719716_a_at) / RFU HIST1H1D (11736915_at) / Fold change /veh HIST1H1D (11736915_at) / RFU CASKIN2 (11723855_a_at) / Fold change /veh CASKIN2 (11723855_a_at) / RFU LOC730098 (11760151_x_at) / Fold change /veh LOC730098 (11760151_x_at) / RFU OR4N2 (11742367_at) / Fold change /veh OR4N2 (11742367_at) / RFU PRRT2 (11749266_a_at) / Fold change /veh PRRT2 (11749266_a_at) / RFU SNX32 (11753110_a_at) / Fold change /veh SNX32 (11753110_a_at) / RFU CDHR5 (11726645_a_at) / Fold change /veh CDHR5 (11726645_a_at) / RFU RCAN1 (11760418_a_at) / Fold change /veh RCAN1 (11760418_a_at) / RFU FAM167A (11723789_a_at) / Fold change /veh FAM167A (11723789_a_at) / RFU FAM26E (11764081_at) / Fold change /veh FAM26E (11764081_at) / RFU ISYNA1 (11749810_s_at) / Fold change /veh ISYNA1 (11749810_s_at) / RFU ACY1 (11761880_at) / Fold change /veh ACY1 (11761880_at) / RFU 11764098_at / Fold change /veh 11764098_at / RFU SAMD14 (11745864_x_at) / Fold change /veh SAMD14 (11745864_x_at) / RFU NPB (11741838_a_at) / Fold change /veh NPB (11741838_a_at) / RFU TMPRSS6 (11731388_a_at) / Fold change /veh TMPRSS6 (11731388_a_at) / RFU KRTAP10-2 (11738614_at) / Fold change /veh KRTAP10-2 (11738614_at) / RFU ARHGAP8 /// PRR5-ARHGAP8 (11727945_x_at) / Fold change /veh ARHGAP8 /// PRR5-ARHGAP8 (11727945_x_at) / RFU KRTAP5-7 /// NADSYN1 (11734609_at) / Fold change /veh KRTAP5-7 /// NADSYN1 (11734609_at) / RFU RASL12 (11751679_a_at) / Fold change /veh RASL12 (11751679_a_at) / RFU CDKN2B (11736163_a_at) / Fold change /veh CDKN2B (11736163_a_at) / RFU PRF1 (11729649_at) / Fold change /veh PRF1 (11729649_at) / RFU, ZNF638 /// ZNF638-IT1 / Fold change vs veh, ZNF638 /// ZNF638-IT1 / RFU, PANK3 / Fold change vs veh, PANK3 / RFU, SH3YL1 / Fold change vs veh, SH3YL1 / RFU, ZEB2 / Fold change vs veh, ZEB2 / RFU, NRIP1 / Fold change vs veh, NRIP1 / RFU, PTTG1IP / Fold change vs veh, PTTG1IP / RFU, CAPN2 / Fold change vs veh, CAPN2 / RFU, MED14 / Fold change vs veh, MED14 / RFU, SNORA58 / Fold change vs veh, SNORA58 / RFU, C1orf63 / Fold change vs veh, C1orf63 / RFU, LRRFIP1 / Fold change vs veh, LRRFIP1 / RFU, NDUFAF7 / Fold change vs veh, NDUFAF7 / RFU, SLC12A2 / Fold change vs veh, SLC12A2 / RFU, IBTK / Fold change vs veh, IBTK / RFU, ESF1 / Fold change vs veh, ESF1 / Fold change vs veh, TMEM50B / RFU, TAOK1 / Fold change vs veh, TAOK1 / RFU, ACBD3 / Fold change vs veh, ACBD3 / RFU, TMA16 / Fold change vs veh, TMA16 / RFU, RWDD3 / Fold change vs veh, RWDD3 / RFU, BCAT1 / Fold change vs veh, BCAT1 / RFU, EDEM3 / Fold change vs veh, EDEM3 / RFU, TMEM33 / Fold change vs veh, TMEM33 / RFU, WDR75 / Fold change vs veh, WDR75 / RFU, AHCTF1 / Fold change vs veh, AHCTF1 / RFU, TFRC / Fold change vs veh, TFRC / RFU, ZDHHC17 / Fold change vs veh, ZDHHC17 / RFU, NOM1 / Fold change vs veh, NOM1 / RFU, ARL8B / Fold change vs veh, ARL8B / RFU, ZBTB11 / Fold change vs veh, ZBTB11 / RFU, TAMM41 / Fold change vs veh, TAMM41 / RFU, KIAA1704 /// LOC100996395 / Fold change vs veh, KIAA1704 /// LOC100996395 / RFU, ING1 / Fold change vs veh, ING1 / RFU, TRMT61B / Fold change vs veh, TRMT61B / RFU, FUBP3 / Fold change vs veh, FUBP3 / RFU, TP53 / Fold change vs veh, TP53 / RFU, TNKS2 / Fold change vs veh, TNKS2 / RFU, ZFP14 / Fold change vs veh, ZFP14 / RFU, ACTR2 / Fold change vs veh, ACTR2 / RFU, PPP3R1 / Fold change vs veh, PPP3R1 / RFU, PIK3R1 / Fold change vs veh, PIK3R1 / RFU, HNRNPA1 / Fold change vs veh, HNRNPA1 / RFU, RNF170 / Fold change vs veh, RNF170 / RFU, ZNF28 / Fold change vs veh, ZNF28 / RFU, RNGTT / Fold change vs veh, RNGTT / RFU, OGT / Fold change vs veh, OGT / RFU, BRD1 / Fold change vs veh, BRD1 / RFU, MARS / Fold change vs veh, MARS / RFU, ZNF655 / Fold change vs veh, ZNF655 / RFU, FAHD1 / Fold change vs veh, FAHD1 / RFU, BDP1 / Fold change vs veh, BDP1 / RFU, LRRCC1 / Fold change vs veh, LRRCC1 / RFU, ARID1A / Fold change vs veh, ARID1A / RFU, ZNF146 / Fold change vs veh, ZNF146 / RFU, ZNF330 / Fold change vs veh, ZNF330 / RFU, GPN3 / Fold change vs veh, GPN3 / RFU, C9orf123 / Fold change vs veh, C9orf123 / RFU, N4BP2L2 / Fold change vs veh, N4BP2L2 / RFU, ARFIP1 / Fold change vs veh, ARFIP1 / RFU, FAM179B / Fold change vs veh, FAM179B / RFU, BCL10 / Fold change vs veh, BCL10 / RFU, UHRF1BP1L / Fold change vs veh, UHRF1BP1L / RFU, BET1 / Fold change vs veh, BET1 / RFU, CNOT2 / Fold change vs veh, CNOT2 / RFU, ZNF268 / Fold change vs veh, ZNF268 / Fold change vs veh, ZNF507 / RFU, DGCR2 / Fold change vs veh, DGCR2 / RFU, WDSUB1 / Fold change vs veh, WDSUB1 / Fold change vs veh, HSP90B1 /// MIR3652 / RFU, ADSS / Fold change vs veh, ADSS / RFU, GK / Fold change vs veh, GK / RFU, ZNF148 / Fold change vs veh, ZNF148 / RFU, TAF9 / Fold change vs veh, TAF9 / RFU, SLC1A5 / Fold change vs veh, SLC1A5 / RFU, SLMO2 / Fold change vs veh, SLMO2 / RFU, ABCC4 / Fold change vs veh, ABCC4 / RFU, LOC101060439 /// RAP1B / Fold change vs veh, LOC101060439 /// RAP1B / RFU, RFX7 / Fold change vs veh, RFX7 / RFU, GTPBP10 / Fold change vs veh, GTPBP10 / RFU, CNEP1R1 / Fold change vs veh, CNEP1R1 / RFU, BIVM-ERCC5 /// ERCC5 / Fold change vs veh, BIVM-ERCC5 /// ERCC5 / RFU, ILF3 / Fold change vs veh, ILF3 / RFU 11762660_at / Fold change /veh 11762660_at / RFU VCAN (11757783_s_at) / Fold change /veh VCAN (11757783_s_at) / RFU DDX43 (11728927_at) / Fold change /veh DDX43 (11728927_at) / RFU KRT8 (11758188_x_at) / Fold change /veh KRT8 (11758188_x_at) / RFU NKD1 (11759106_at) / Fold change /veh NKD1 (11759106_at) / RFU SRD5A1 (11742802_a_at) / Fold change /veh SRD5A1 (11742802_a_at) / RFU TPSAB1 /// TPSB2 (11721975_s_at) / Fold change /veh TPSAB1 /// TPSB2 (11721975_s_at) / RFU GSTM3 (11746129_a_at) / Fold change /veh GSTM3 (11746129_a_at) / RFU IL23R (11737362_x_at) / Fold change /veh IL23R (11737362_x_at) / RFU TMEM51 (11727254_a_at) / Fold change /veh TMEM51 (11727254_a_at) / RFU PIWIL2 (11732686_x_at) / Fold change /veh PIWIL2 (11732686_x_at) / RFU ORM1 (11744905_x_at) / Fold change /veh ORM1 (11744905_x_at) / RFU CCDC152 (11743942_at) / Fold change /veh CCDC152 (11743942_at) / RFU ECM1 (11717891_a_at) / Fold change /veh ECM1 (11717891_a_at) / RFU IL23R (11748794_a_at) / Fold change /veh IL23R (11748794_a_at) / RFU TNFAIP8L3 (11732012_x_at) / Fold change /veh TNFAIP8L3 (11732012_x_at) / RFU MBOAT4 (11741988_at) / Fold change /veh MBOAT4 (11741988_at) / RFU 11764193_at / Fold change /veh 11764193_at / RFU TMEM53 (11763286_at) / Fold change /veh TMEM53 (11763286_at) / RFU MAGEB2 (11727129_at) / Fold change /veh MAGEB2 (11727129_at) / RFU TMEM200A (11744735_a_at) / Fold change /veh TMEM200A (11744735_a_at) / RFU CCDC152 (11751479_a_at) / Fold change /veh CCDC152 (11751479_a_at) / RFU FAM211A (11726209_a_at) / Fold change /veh FAM211A (11726209_a_at) / RFU RGS16 (11746705_a_at) / Fold change /veh RGS16 (11746705_a_at) / RFU VCAN (11755009_s_at) / Fold change /veh VCAN (11755009_s_at) / RFU RHOB (11743442_s_at) / Fold change /veh RHOB (11743442_s_at) / RFU RGS16 (11720943_a_at) / Fold change /veh RGS16 (11720943_a_at) / RFU RGS16 (11720944_at) / Fold change /veh RGS16 (11720944_at) / RFU, VPS4B / Fold change vs veh, VPS4B / RFU, CREB1 / Fold change vs veh, CREB1 / RFU, DNAJC13 / Fold change vs veh, DNAJC13 / RFU, GNAQ / Fold change vs veh, GNAQ / RFU, CDK5R1 / Fold change vs veh, CDK5R1 / RFU, ZRANB3 / Fold change vs veh, ZRANB3 / RFU, CUL4A / Fold change vs veh, CUL4A / RFU, CCNY / Fold change vs veh, CCNY / RFU, UFL1 / Fold change vs veh, UFL1 / RFU, COG3 / Fold change vs veh, COG3 / RFU, DIAPH2 / Fold change vs veh, DIAPH2 / RFU, SKA2 / Fold change vs veh, SKA2 / RFU, AFF3 / Fold change vs veh, AFF3 / RFU, LMF1 / Fold change vs veh, LMF1 / RFU, IPO11 / Fold change vs veh, IPO11 / RFU, DFFB / Fold change vs veh, DFFB / RFU, FOXP1 / Fold change vs veh, FOXP1 / RFU, CARD8 / Fold change vs veh, CARD8 / RFU, STRN3 / Fold change vs veh, STRN3 / RFU, ADK / Fold change vs veh, ADK / RFU, RASSF2 / Fold change vs veh, RASSF2 / RFU, WIPF1 / Fold change vs veh, WIPF1 / RFU, LARP1B / Fold change vs veh, LARP1B / RFU, RASA1 / Fold change vs veh, RASA1 / RFU, RB1 / Fold change vs veh, RB1 / RFU, PPFIA1 / Fold change vs veh, PPFIA1 / RFU, MAT2A / Fold change vs veh, MAT2A / RFU, CCT5 / Fold change vs veh, CCT5 / RFU, WDR92 / Fold change vs veh, WDR92 / RFU, CUX1 / Fold change vs veh, CUX1 / RFU, TTC7A / Fold change vs veh, TTC7A / RFU, TMEM135 / Fold change vs veh, TMEM135 / RFU, DEPTOR / Fold change vs veh, DEPTOR / RFU, CPM / Fold change vs veh, CPM / RFU, DNAJB6 / Fold change vs veh, DNAJB6 / RFU, CACNA2D3 / Fold change vs veh, CACNA2D3 / RFU, DTX4 / Fold change vs veh, DTX4 / RFU, TFCP2 / Fold change vs veh, TFCP2 / RFU, GMCL1 /// GMCL1P1 / Fold change vs veh, GMCL1 /// GMCL1P1 / RFU, AEBP2 / Fold change vs veh, AEBP2 / RFU, SNHG1 /// SNORD22 /// SNORD25 /// SNORD26 /// SNORD27 /// SNORD28 /// SNORD29 /// SNORD31 / Fold change vs veh, SNHG1 /// SNORD22 /// SNORD25 /// SNORD26 /// SNORD27 /// SNORD28 /// SNORD29 /// SNORD31 / Fold change (Aza/veh), C12orf56 (ProbeSet 11735607_a_at) / Fold change (ACY-1035/veh), C12orf56 (ProbeSet 11735607_a_at) / Fold change (Aza/veh), FGFR1OP (ProbeSet 11751329_s_at) / Fold change (ACY-1035/veh), FGFR1OP (ProbeSet 11751329_s_at) / Fold change (Aza/veh), VPS36 (ProbeSet 11739960_a_at) / Fold change (ACY-1035/veh), VPS36 (ProbeSet 11739960_a_at) / RFU SYPL1 (11715823_x_at) / Fold change /veh SYPL1 (11715823_x_at) / RFU IGFBP7 (11715501_s_at) / Fold change /veh IGFBP7 (11715501_s_at) / RFU REEP3 (11722064_at) / Fold change /veh REEP3 (11722064_at) / RFU IGLL1 (11728026_x_at) / Fold change /veh IGLL1 (11728026_x_at): dose or concentration left out as unconfirmed
Settings: ProbeSet 11716331_a_at; LIST D

For Nc1ncn([C@@H]2O[C@H](CO)[C@@H](O)[C@H]2O)c(=O)n1 [azacitidine], the “RFU, DNAJB6” value was 212.79 RFU.
